Assay results taken from paper PMC9020739, “Identification of a two-component regulatory system involved in antimicrobial peptide resistance in Streptococcus pneumoniae” (PLoS Pathogens, 2022).
Where a SMILES comes first, the peptide text is derived from it. Bridges are numbered along the chain shown (N, C = ends). [ ]: non-standard residue; d: D form. The star is where a group is joined. Ileψ(thiazoline)Cys = CC[C@H](C)[C@H](N)C1=N[C@H](C(=O)*)CS1; dOrn = NCCC[C@@H](N)C(=O)O

Biological target: BceAB transporter from S. pneumoniae (Streptococcus pneumoniae, UniProt A0A0H2ZN40)
Assay type: biochemical
Conditions: 5 mM nucleotide, 300 μg/mL bacitracin
Procedure: E. coli BL21(DE3) cells were transformed with pRSF-Duet1-BceAB WT, K48A or E170Q and selected on LB-agar plates containing 50 μg/mL kanamycin. One colony was inoculated into in 2L-baffled flasks containing 500 mL of 2YT medium and 50 μg/mL kanamycin and grown at 37°C, 180 rpm to OD600 of 0.6. Protein expression was induced by adding IPTG to a final concentration of 1 mM. Induction was performed overnight at 25°C and cells were harvested by centrifugation at 7,000 g for 20 min.
Cells were resuspended in buffer A (HEPES-NaOH 100 mM pH 8.0, NaCl 150 mM) and lysed by passaging them three times through a cell disruptor (Microfluidizer, Microfluidics) at 18,000 psi (or 1,24 x 108 Pa). Undisrupted cells and cell debris were removed by centrifugation at 15,000 x g for 30 min at 4°C. Membranes were harvested from the supernatant after ultracentrifugation at 150,000 x g for 1 h at 4°C. Membranes were resuspended in 20 mL of buffer A and centrifuged once again at 150,000 x g for 1 h at 4°C. Membrane pellets were homogenized in buffer HEPES-NaOH 100 mM pH 8.0, NaCl 150 mM and 20% glycerol, and stored at -80°C.
For the purification of BceAB, membranes from 0,5 L cell culture were diluted in buffer B (100 mM d’HEPES-NaOH pH 8, 150 mM NaCl, 10% glycerol) to a protein concentration of 4 mg/mL and solubilized with 0.5% (w/v) LMNG for 2 h at 4°C. After ultracentrifugation at 150,000 x g for 1 h at 4°C, the supernatant containing solubilized proteins was diluted four times using buffer B and loaded on Ni^2+-charged immobilized metal-ion affinity chromatography (IMAC) column (1 mL HisTrap HP, Cytiva). The column was washed with 10 mL of buffer B containing 0.005% (w/v) LMNG and 20 mM of imidazole. The column was further washed with the same buffer until OD280nm reached basal levels. BceAB was eluted by buffer B containing 0.005% (w/v) LMNG and an imidazole gradient from 20 to 500 mM of imidazole. Purified BceAB was dialyzed into buffer B containing 0.005% (w/v) LMNG and stored at -80°C.
The proteoliposomes were prepared as previously described for the transporter BmrA [50]. Proteoliposomes were loaded on sucrose gradient with different layers of 400 μL of 50 mM HEPES-KOH pH 8.0 buffer containing 30, 20, 15 or 10% of sucrose. One mL of proteoliposomes was loaded on the top of the sucrose gradient and ultra-centrifuged at 200,000 x g for 12 h at 4°C. Proteoliposomes were typically collected from the 15% layer and were loaded on SDS-PAGE to analyze and quantify the presence of BceAB by using a standard-curve of purified BceAB and ImageJ.
These activities were performed as previously described.

CC[C@H](C)[C@H](N)C1=N[C@H](C(=O)N[C@@H](CC(C)C)C(=O)N[C@H](CCC(=O)O)C(=O)N[C@H](C(=O)N[C@H]2CCCCNC(=O)[C@H](CC(N)=O)NC(=O)[C@@H](CC(=O)O)NC(=O)[C@H](Cc3cnc[nH]3)NC(=O)[C@@H](Cc3ccccc3)NC(=O)[C@H]([C@@H](C)CC)NC(=O)[C@@H](CCCN)NC2=O)[C@@H](C)CC)CS1 [bacitracin] ({Ileψ(thiazoline)Cys}-L[dE]IK[dOrn]I[dF]H[dD]N; lactam 4-C (inferred); N-terminus assumed)
ATPase activity of wild-type BceAB stimulated by bacitracin (after reconstitution in liposomes, calculated on total protein added to the reconstitution mixture): 0.6–1 μmol of ATP hydrolyzed/min/mg | Specific ATPase activity of wild-type BceAB in the presence of bacitracin (proteoliposomes further separated on sucrose gradient): up to 2 μmol ATP hydrolyzed/min/mg
